Test system: HepaRG
Test: LDH release cytotoxicity, % of total lysis control; higher = more cytotoxic
Settings: 48 h
Procedure, shortened: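 Single-lot HepaRG cells in collagen I-coated 96-well plates were treated for 48 h in serum-free induction medium containing 0.5% DMSO with test chemicals in eight-point half-log series up to 100 µM. For total lysis, wells received 0.1% Triton X. LDH in 50 µL spent medium was assayed by resorufin fluorescence with CytoTox-ONE. Percent cytotoxicity was normalized to the on-plate vehicle and total lysis controls, with duplicates averaged.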

c1ccc(C[n+]2cccc3ccccc32)cc1 [1-Benzylquinolinium chloride]
Settings	LDH release cytotoxicity [%]
0.0327296 µM	-1.88
0.1035 µM	-1.6
0.327296 µM	-1.47
1.035 µM	-1.94
3.27296 µM	-1.92
10.35 µM	-0.779
32.729574 µM	0.264
103.5 µM	-1.31

O=C1N=CC(F)C(=O)N1 (configuration not stated) [5-Fluorouracil]
Settings	LDH release cytotoxicity [%]
0.03162 µM	-1.55
0.1 µM	-3.9
0.3162278 µM	-0.836
1 µM	-1.84
3.16228 µM	-1.66
10 µM	-1.56
31.6228 µM	-1.98
100 µM	8.44

Clc1ccc(C(c2ccccc2Cl)C(Cl)(Cl)Cl)cc1 (configuration not stated) [o,p'-DDT]
Settings	LDH release cytotoxicity [%]
0.03162 µM	0.598
0.1 µM	-1.38
0.3162278 µM	-0.542
1 µM	-0.286
3.16228 µM	2.06
10 µM	10.3
31.6228 µM	12.9
100 µM	8.46

Cc1cc(O)ccc1Cl [4-Chloro-3-methylphenol]
Settings	LDH release cytotoxicity [%]
0.03162 µM	-0.825
0.1 µM	-0.387
0.3162278 µM	-0.309
1 µM	-0.443
3.16228 µM	0.57
10 µM	0.611
31.6228 µM	0.786
100 µM	2.48

O=C1CCCCC1 [Cyclohexanone]
Settings	LDH release cytotoxicity [%]
0.03162 µM	-0.709
0.1 µM	-1.76
0.3162278 µM	-1.81
1 µM	-1.07
3.16228 µM	-1.46
10 µM	-1.17
31.6228 µM	-0.292
100 µM	0.737

NC1CCCCC1 [Cyclohexylamine]
Settings	LDH release cytotoxicity [%]
0.03162 µM	-1.45
0.1 µM	-1.58
0.3162278 µM	-1.84
1 µM	-2.2
3.16228 µM	-2.32
10 µM	-1.74
31.6228 µM	-0.752
100 µM	0.0324

CCCCCCCCCc1ccc(O)cc1 [4-Nonylphenol]
Settings	LDH release cytotoxicity [%]
0.03162 µM	-1.27
0.1 µM	-0.659
0.3162278 µM	-1.49
1 µM	-1.65
3.16228 µM	-0.715
10 µM	0.445
31.6228 µM	-0.17
100 µM	1.51

Nc1ccc(N=Nc2ccccc2)cc1 [4-Aminoazobenzene]
Settings	LDH release cytotoxicity [%]
0.03162 µM	-0.0491
0.1 µM	-1.19
0.3162278 µM	-1.19
1 µM	-1.05
3.16228 µM	-1.2
10 µM	-0.585
31.6228 µM	0.184
100 µM	0.63

CC(C)(C)c1ccc(O)c(C(C)(C)C)c1 [2,4-Di-tert-butylphenol]
Settings	LDH release cytotoxicity [%]
0.03162 µM	-2.05
0.1 µM	-1.71
0.3162278 µM	-1.9
1 µM	-2.07
3.16228 µM	-1.83
10 µM	-1.53
31.6228 µM	-0.783
100 µM	0.8

CN(C)C(=O)NC1(c2ccccc2)CCN(CCCC2(c3ccc(Cl)c(Cl)c3)CCCN(C(=O)c3ccccc3)C2)CC1 (configuration not stated)
Settings	LDH release cytotoxicity [%]
0.0079057 µM	0.117
0.025 µM	-1.98
0.0790569 µM	-1.74
0.25 µM	-1.65
0.790569 µM	-1.74
2.5 µM	-1.23
7.90569 µM	-0.502
25 µM	77

O=C1CCCO1 [4-Butyrolactone]
Settings	LDH release cytotoxicity [%]
0.03162 µM	-0.251
0.1 µM	-0.513
0.3162278 µM	-0.359
1 µM	-0.517
3.16228 µM	-0.65
10 µM	0.21
31.6228 µM	-0.668
100 µM	1.06

CCOC(=O)c1ccc(C2CCC(NCC(O)COc3ccc(O)c(NS(C)(=O)=O)c3)CC2)cc1 (configuration not stated)
Settings	LDH release cytotoxicity [%]
0.03162 µM	-1.1
0.1 µM	-1.92
0.3162278 µM	-1.82
1 µM	-2.5
3.16228 µM	-1.76
10 µM	-1.05
31.6228 µM	-1.59
100 µM	-0.279

C/C=C/C=C/C(=O)O [2E,4E-Hexadienoic acid]
Settings	LDH release cytotoxicity [%]
0.03162 µM	-0.745
0.1 µM	-1.89
0.3162278 µM	-1.82
1 µM	-1.07
3.16228 µM	-1.03
10 µM	-1.19
31.6228 µM	-0.323
100 µM	0.653

COC(=O)NS(=O)(=O)c1ccc(N)cc1 [Asulam]
Settings	LDH release cytotoxicity [%]
0.03162 µM	-0.269
0.1 µM	-1.42
0.3162278 µM	-0.821
1 µM	-0.262
3.16228 µM	-1.05
10 µM	-0.725
31.6228 µM	-0.233
100 µM	0.635

O=C(O)c1ccccc1 [Sodium benzoate]
Settings	LDH release cytotoxicity [%]
0.031623 µM	0.689
0.1 µM	-2.13
0.316228 µM	-2.23
1 µM	-3.15
3.16228 µM	-2.88
10 µM	-2.37
31.6228 µM	-1.36
100 µM	-0.292

CC(C)(C)c1cc(O)c(C(C)(C)C)cc1O [2,5-Di-tert-butylbenzene-1,4-diol]
Settings	LDH release cytotoxicity [%]
0.03162 µM	-1.42
0.1 µM	-1.56
0.3162278 µM	-1.72
1 µM	-1.69
3.16228 µM	-1.49
10 µM	-1.94
31.6228 µM	-1.04
100 µM	-1.46

COc1cc(C=O)ccc1O [4-Hydroxy-3-methoxybenzaldehyde]
Settings	LDH release cytotoxicity [%]
0.031623 µM	-0.0885
0.1 µM	-2.63
0.316228 µM	-3.71
1 µM	-4.06
3.16228 µM	-3.91
10 µM	-3.69
31.6228 µM	-3.12
100 µM	0.307

Clc1nc(Cl)nc(Nc2ccccc2Cl)n1 [Anilazine]
Settings	LDH release cytotoxicity [%]
0.03162 µM	0.501
0.1 µM	0.704
0.3162278 µM	0.988
1 µM	0.786
3.16228 µM	0.633
10 µM	0.855
31.6228 µM	0.799
100 µM	0.712

CCOC(=O)C(Cl)Cc1cc(-n2nc(C)n(C(F)F)c2=O)c(F)cc1Cl (configuration not stated) [Carfentrazone-ethyl]
Settings	LDH release cytotoxicity [%]
0.03162 µM	-0.276
0.1 µM	-1.32
0.3162278 µM	-0.782
1 µM	-0.573
3.16228 µM	-0.524
10 µM	-0.0179
31.6228 µM	-0.285
100 µM	1.22

NC(=O)N(O)C1C=CC(Oc2cccc(Oc3ccc(F)cc3)c2)C1 (configuration not stated)
Settings	LDH release cytotoxicity [%]
0.03162 µM	-0.313
0.1 µM	-0.862
0.3162278 µM	-1.12
1 µM	-0.265
3.16228 µM	-0.557
10 µM	-1.09
31.6228 µM	1.56
100 µM	19.5

OCc1ccccc1 [Benzyl alcohol]
Settings	LDH release cytotoxicity [%]
0.03162 µM	-0.977
0.1 µM	-1.47
0.3162278 µM	-1.57
1 µM	-2.41
3.16228 µM	-1.69
10 µM	-1.73
31.6228 µM	-1.32
100 µM	-1.07

O=C(O)COc1ccc(Cl)cc1Cl [2,4-Dichlorophenoxyacetic acid]
Settings	LDH release cytotoxicity [%]
0.03162 µM	-2.81
0.1 µM	-3.06
0.3162278 µM	-3.35
1 µM	-3.21
3.16228 µM	-3.24
10 µM	-3.79
31.6228 µM	48.3
100 µM	69.9

CCC(=O)OC1CCC2C3CCC4=CC(=O)CCC4(C)C3CCC12C (configuration not stated) [Testosterone propionate]
Settings	LDH release cytotoxicity [%]
0.03162 µM	-1.39
0.1 µM	-0.545
0.3162278 µM	-1.1
1 µM	-1.85
3.16228 µM	-1.06
10 µM	-1.07
31.6228 µM	-0.42
100 µM	-0.461

O=C(NC(Cc1ccccc1)C(O)C(=O)N1CC(O)C(O)C1)c1cc2cc(Cl)ccc2[nH]1 (configuration not stated) [Ingliforib]
Settings	LDH release cytotoxicity [%]
0.03162 µM	-1.12
0.1 µM	-2
0.3162278 µM	-1.41
1 µM	-0.89
3.16228 µM	-0.718
10 µM	-0.896
31.6228 µM	-1.06
100 µM	8.47

C[N+]1(C)CCCCC1 [1,1-Dimethylpiperidinium chloride]
Settings	LDH release cytotoxicity [%]
0.03162 µM	-1.22
0.1 µM	-0.187
0.3162278 µM	-1.4
1 µM	-1.35
3.16228 µM	0.248
10 µM	0.722
31.6228 µM	-0.465
100 µM	0.762

OCC(O)CO [Glycerol]
Settings	LDH release cytotoxicity [%]
0.03162 µM	-1.51
0.1 µM	-1.11
0.3162278 µM	-1.56
1 µM	-1.79
3.16228 µM	-1.43
10 µM	-1.14
31.6228 µM	-0.926
100 µM	-0.545

O=[N+]([O-])C(CO)(CO)CO [2-(Hydroxymethyl)-2-nitro-1,3-propanediol]
Settings	LDH release cytotoxicity [%]
0.03162 µM	0.0153
0.1 µM	-1.5
0.3162278 µM	-1.73
1 µM	-0.843
3.16228 µM	-0.932
10 µM	-1.24
31.6228 µM	-0.797
100 µM	0.918

CSc1ccc(Oc2ccc(S(N)(=O)=O)cc2CN(C)C)cc1C
Settings	LDH release cytotoxicity [%]
0.03162 µM	-1.53
0.1 µM	-2.12
0.3162278 µM	-3.24
1 µM	-3.17
3.16228 µM	-2.65
10 µM	-1.44
31.6228 µM	-1.38
100 µM	13.7

CCCSP(=O)(OCC)SCCC [Ethoprop]
Settings	LDH release cytotoxicity [%]
0.0325715 µM	-0.633
0.103 µM	-0.669
0.325715 µM	-0.697
1.03 µM	-0.356
3.25715 µM	-0.537
10.3 µM	-0.345
32.5715 µM	0.55
103 µM	2.97
